Like-named read-outs stand apart in the source and are kept apart here.

The test system of data set [1] is human colon tumor cell lines. The data set can be described thus: In vitro cytotoxicity survey, panel of human colon tumor cell lines. The conditions noted are these: HT-29, all cell lines tested except HT29, 72 h. It is filed as cell-based. On the procedure:
(§1) A number of commercially available and privately-acquired tumor cell lines were initially surveyed for their sensitivity to various platinum agents, including oxaliplatin. […] The cell lines were also surveyed for sensitivity to 5FU. […] Additionally, literature survey was conducted in search of in vitro-generated oxaliplatin-resistant colorectal cell lines to potentially include pre-clinical pharmacology studies in an effort to show improved sensitivity of these cells to a liposomal vs. free oxaliplatin treatment. From this survey, […] other oxaliplatin-resistant colorectal tumor lines were identified; HT29 (Plascencia et al., 2006; Yang et al., 2006), and DLD-1 (Kashiwagi et al., 2011).

The next data set relates to HT29. Nature of the data set: In vitro cytotoxicity, HT29. It is filed as cell-based, human. The procedure: A number of commercially available and privately-acquired tumor cell lines were initially surveyed for their sensitivity to various platinum agents, including oxaliplatin. […] The cell lines were also surveyed for sensitivity to 5FU.
Two studies of the novel liposome formulation containing oxaliplatin were conducted in this tumor model.

The conditions of data set [2]: pure lipid; cited from earlier work.
Data set [3] relates to KB (epidermoid oral carcinoma human tumor) cells. The data set can be described thus: In vitro cytotoxicity, KB cells.
Method: (§2) Prior to initiation of this study, oxaliplatin was evaluated for drug tolerance in non-tumor bearing immunodeficient mice.
The nature of data set [4]: Drug tolerance in non-tumor bearing immunodeficient mice. It is filed as in vivo.
Method: as §2
The subject of a further data set is HCT-116 cells. Nature of the data set: In vitro cytotoxicity survey, HCT-116. Type of data set: cell-based, human. The conditions noted are these: 72 h. The procedure: as §1
The next data set has as its system KB xenograft tumors. The data set can be described thus: Single-dose efficacy in mice bearing KB xenografts. Type of data set: in vivo, nude mice. The conditions noted are these: 15 mg/kg. From the text: One-way ANOVA followed by Neuman-Keuls post hoc test.

Take `O=c1[nH]cc(F)c(=O)[nH]1` [Sample 5FU, 5-fluorouracil]: the IC50 was 7 to 10 µM in data set [1] and more than 50 µM in the data set on HT29 (Homo sapiens, HT-29, HT29, 72 h).
Consider `CCCCCCCC/C=C\CCCCCCCC(=O)O[C@H](COC(=O)CCCCCCCCCCCCCCC)COP(=O)([O-])OCC[N+](C)(C)C` [POPC, 1-palmitoyl-2-oleoyl-sn-glycero-3-phosphocholine], for which, in data set [2], the “gel-liquid crystalline thermal transition temperature” value was “around −2 °C”.
Consider `N.N.[Cl][Pt][Cl]` [cisplatin], for which the IC50 in data set [3] (read-out: sensitivity (IC50), KB cell-line) was determined as 4 µM.
`O=C1[O][Pt]2([NH][C@@H]3CCCC[C@H]3[NH]2)[O]C1=O` [oxaliplatin, [(1R,2R)-cyclohexane-1,2-diamine](ethanedioato-O,O′)platinum(II)]: the “drug tolerance (in words)” value in data set [4] (doses above 15 mg/kg (i.e., 20 mg/kg)) was “dehydration and unacceptable gross body weight losses”. The “maximum tolerated dose (MTD)” value in data set [4] (mice) is 15 mg/kg. For the same compound, the IC50 in data set [3] (KB cell-line, 72 h) is 5.4 µM; in data set [3] (KB cells, cytotoxicity testing prior to injection) it was 5.3 µM; in the data set with HCT-116 cells, 0.4 µM; in the data set with HT29 (HT29 and several other cell lines, 72 h) it was 5 to 10 µM; in the data set on HT29 (HT29 cell line used in the present studies), 5.4 µM. Also, the “tumor growth and survival compared to saline control (in words)” value in the data set on KB xenograft tumors is reported as “did not significantly inhibit tumor growth or increase survival”. In addition, in the data set on KB xenograft tumors (KB xenografts), the “Median Survival” value is given as 25.5. In the data set with KB xenograft tumors (KB xenografts), this compound returned a TGI of 0%.

These data come from US20140271820A1, “LIPOSOME OXALIPLATIN COMPOSITIONS FOR CANCER THERAPY” (priority 2013, published 2014).
